# From patent US8574563B2 (Bristol-Myers Squibb Company, priority 2006, dated 2013)
# System: HCV 1b-377-neo replicon cells
# Assay: HCV replicon assay, HCV 1b-377-neo replicon cells (1b FRET)
# Format: cell-based, Hepatitis C virus genotype 1b
# Conditions: Hepatitis C virus, HCV 1b-377-neo replicon cells; HCV 1b genotype; read-out: EC50 range against HCV 1b (Table 2, Range)
# Procedure, shortened: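 Compounds tested in HCV genotype 1b-377-neo replicon cells with a FRET read-out. Cells resistant to a reference NS5A inhibitor through a Y2065H NS5A mutation were run alongside wild-type cells.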
row,SMILES,EC50
1,"CCN(CC)[C@@H](C(=O)N1CCC[C@H]1c1ncc(-c2ccc(-c3ccc(-c4cnc([C@@H]5CCCN5C(=O)[C@H](Cc5cn(C)cn5)NC(=O)OC)[nH]4)cc3)cc2)[nH]1)c1ccccc1 [cj-40, methyl ((1S)-2-((2S)-2-(5-(4′-(2-((2S)-1-((2R)-2-(diethylamino)-2-phenylacetyl)-2-pyrrolidinyl)-1H-imidazol-5-yl)-4-biphenylyl)-1H-imidazol-2-yl)-1-pyrrolidinyl)-1-((1-methyl-1H-imidazol-4-yl)methyl)-2-oxoethyl)carbamate]",0.001 to 0.999 nM
2,"CC(=O)CCC(=O)N1CCC[C@H]1c1ncc(-c2ccc(-c3ccc(-c4cnc([C@@H]5CCCN5C(=O)[C@@H](c5ccccc5)N(C)C)[nH]4)cc3)cc2)[nH]1 [Example 94-37, 5-((2S)-2-(5-(4′-(2-((2S)-1-((2R)-2-(dimethylamino)-2-phenylacetyl)-2-pyrrolidinyl)-1H-imidazol-5-yl)-4-biphenylyl)-1H-imidazol-2-yl)-1-pyrrolidinyl)-5-oxo-2-pentanone]",1 to 99 nM
3,"COC(=O)N[C@@H](C(=O)N1CCC[C@H]1c1ncc(-c2ccc(-c3cc(F)c(-c4cnc([C@@H]5CCCN5C(=O)[C@H](NC(=O)OC)c5ccccc5)[nH]4)cc3F)cc2)[nH]1)c1ccccc1 [Example D53, dimethyl ((2,5-difluoro-4,4′-biphenyldiyl)bis(1H-imidazole-5,2-diyl(2S)-2,1-pyrrolidinediyl((1R)-2-oxo-1-phenyl-2,1-ethanediyl))) biscarbamate]",0.001 to 0.999 nM
4,COC(=O)N[C@H](C(=O)N1CCC[C@H]1c1ncc(-c2ccc(-c3ccc(-c4cnc([C@@H]5CCCN5C(=O)[C@@H](Nc5n[nH]c(N)n5)C(C)C)[nH]4)cc3)cc2)[nH]1)C(C)C,0.001 to 0.999 nM
5,"COC(=O)N[C@@H](CC(C)C)C(=O)N1C[C@H](F)C[C@H]1c1ncc(-c2ccc(-c3ccc(-c4cnc([C@@H]5C[C@@H](F)CN5C(=O)[C@H](CC(C)C)NC(=O)OC)[nH]4)cc3)cc2)[nH]1 [JG-12, methyl ((1S)-1-(((2S,4R)-4-fluoro-2-(5-(4′-(2-((2S,4R)-4-fluoro-1-((2S)-2-((methoxycarbonyl)amino)-4-methylpentanoyl)-2-pyrrolidinyl)-1H-imidazol-5-yl)-4-biphenylyl)-1H-imidazol-2-yl)-1-pyrrolidinyl)carbonyl)-3-methylbutyl)carbamate]",0.001 to 0.999 nM
6,"COC(=O)N[C@H](C(=O)N1[C@H](c2ncc(-c3ccc(-c4ccc(-c5cnc([C@@H]6C[C@@H]7C[C@@H]7N6C(=O)[C@@H](NC(=O)OC)C(C)(C)C)[nH]5)cc4)cc3)[nH]2)C[C@@H]2C[C@@H]21)C(C)(C)C [Example M128, methyl ((1S)-1-(((1S,3S,5S)-3-(5-(4′-(2-((1S,3S,5S)-2-((2S)-2-((methoxycarbonyl)amino)-3,3-dimethylbutanoyl)-2-azabicyclo[3.1.0]hex-3-yl)-1H-imidazol-5-yl)-4-biphenylyl)-1H-imidazol-2-yl)-2-azabicyclo[3.1.0]hex-2-yl)carbonyl)-2,2-dimethylpropyl)carbamate]",1 to 99 nM
7,"COC(=O)N[C@@H](C(=O)N[C@@H](C)c1ncc(-c2ccc(-c3ccc(-c4cnc([C@H](C)NC(=O)[C@H](NC(=O)OC)c5ccccc5)[nH]4)cn3)cc2)[nH]1)c1ccccc1 [Example 152j-23, methyl ((1R)-2-(((1S)-1-(5-(6-(4-(2-((1S)-1-(((2R)-2-((methoxycarbonyl)amino)-2-phenylacetyl)amino)ethyl)-1H-imidazol-5-yl)phenyl)-3-pyridinyl)-1H-imidazol-2-yl)ethyl)amino)-2-oxo-1-phenylethyl)carbamate]",0.001 to 0.999 nM
8,"COC(=O)N[C@@H](C(=O)N1CCC[C@H]1c1ncc(-c2ccc(-c3ccc(-c4cnc([C@@H]5CCCN5C(=O)CCN5CCCCC5)[nH]4)cc3)cc2)[nH]1)c1ccccc1 [Example 84-24, methyl ((1R)-2-oxo-1-phenyl-2-((2S)-2-(5-(4′-(2-((2S)-1-(3-(1-piperidinyl)propanoyl)-2-pyrrolidinyl)-1H-imidazol-5-yl)-4-biphenylyl)-1H-imidazol-2-yl)-1-pyrrolidinyl)ethyl)carbamate]",0.001 to 0.999 nM
9,"O=C(C(c1ccccc1)N1CCC(c2ccccc2)CC1)N1CCC[C@H]1c1ncc(-c2ccc(-c3ccc(-c4c[nH]c([C@@H]5CCCN5C(=O)[C@H]5CCCO5)n4)cc3)cc2)[nH]1 (stereo partly drawn) [Example 103-1, 1-(2-oxo-1-phenyl-2-((2S)-2-(5-(4′-(2-((2S)-1-((2R)-tetrahydro-2-furanylcarbonyl)-2-pyrrolidinyl)-1H-imidazol-4-yl)-4-biphenylyl)-1H-imidazol-2-yl)-1-pyrrolidinyl)ethyl)-4-phenylpiperidine]",0.001 to 0.999 nM
10,"COC(=O)N[C@@H](Cc1cn(C)cn1)C(=O)N1CCC[C@H]1c1ncc(-c2ccc(-c3ccc(-c4cnc([C@@H]5CCCN5C(=O)[C@@H](NC(=O)OC)C(C)C)[nH]4)cc3)cc2)[nH]1 [cj-42, methyl ((1S)-1-(((2S)-2-(5-(4′-(2-((2S)-1-((2S)-2-((methoxycarbonyl)amino)-3-(1-methyl-1H-imidazol-4-yl)propanoyl)-2-pyrrolidinyl)-1H-imidazol-5-yl)-4-biphenylyl)-1H-imidazol-2-yl)-1-pyrrolidinyl)carbonyl)-2-methylpropyl)carbamate]",0.001 to 0.999 nM
11,"COC(=O)N[C@@H](C(=O)N1CCC[C@H]1c1ncc(-c2ccc(-c3ccc(-c4cnc([C@@H]5CCCN5C(=O)C(c5cnc6ccccc6c5)N(C)C)[nH]4)cc3)cc2)[nH]1)c1ccccc1 (stereo partly drawn) [Example 84-52, methyl ((1R)-2-((2S)-2-(5-(4′-(2-((2S)-1-((dimethylamino)(3-quinolinyl)acetyl)-2-pyrrolidinyl)-1H-imidazol-5-yl)-4-biphenylyl)-1H-imidazol-2-yl)-1-pyrrolidinyl)-2-oxo-1-phenylethyl)carbamate]",0.001 to 0.999 nM
12,"COC(=O)N[C@@H](C)C(=O)N1CCC[C@H]1c1ncc(-c2ccc(-c3ccc(-c4cnc([C@@H]5CCCN5C(=O)[C@H](Cc5cscn5)NC(=O)OC)[nH]4)cc3)cc2)[nH]1 [cj-81, methyl ((1S)-2-((2S)-2-(5-(4′-(2-((2S)-1-(N-(methoxycarbonyl)-L-alanyl)-2-pyrrolidinyl)-1H-imidazol-5-yl)-4-biphenylyl)-1H-imidazol-2-yl)-1-pyrrolidinyl)-2-oxo-1-(1,3-thiazol-4-ylmethyl)ethyl)carbamate]",0.001 to 0.999 nM
13,"CCN(C)[C@@H](C(=O)N1CCC[C@H]1c1ncc(-c2ccc(-c3ccc(-c4cnc([C@@H]5CCCN5C(=O)[C@@H]5CCCO5)[nH]4)cc3)cc2)[nH]1)c1ccccc1 [Example 107, (1R)-N-ethyl-N-methyl-2-oxo-1-phenyl-2-((2S)-2-(5-(4′-(2-((2S)-1-((2S)-tetrahydro-2-furanylcarbonyl)-2-pyrrolidinyl)-1H-imidazol-5-yl)-4-biphenylyl)-1H-imidazol-2-yl)-1-pyrrolidinyl)ethanamine]",0.001 to 0.999 nM
14,"COC(=O)N[C@H](C(=O)N1CCC[C@H]1c1ncc(-c2ccc(-c3ccc(-c4cnc([C@@H]5CCCN5C(=O)[C@@H](NC(=O)OC)[C@@H](C)O)[nH]4)cc3)cc2)[nH]1)[C@@H](C)O [Example M15, methyl ((1S,2R)-2-hydroxy-1-(((2S)-2-(5-(4′-(2-((2S)-1-((2S,3R)-3-hydroxy-2-((methoxycarbonyl)amino)butanoyl)-2-pyrrolidinyl)-1H-imidazol-5-yl)-4-biphenylyl)-1H-imidazol-2-yl)-1-pyrrolidinyl)carbonyl)propyl)carbamate]",100 to 999 nM
15,"Cn1cncc1C(=O)N[C@@H](C(=O)N1CCC[C@H]1c1ncc(-c2ccc(-c3ccc(-c4cnc([C@@H]5CCCN5C(=O)[C@H](NC(=O)c5cncn5C)c5ccccc5)[nH]4)cc3)cc2)[nH]1)c1ccccc1 [Example 25-2, N,N′-(4,4′-biphenyldiylbis(1H-imidazole-5,2-diyl(2S)-2,1-pyrrolidinediyl((1R)-2-oxo-1-phenyl-2,1-ethanediyl)))bis(1-methyl-1H-imidazole-5-carboxamide)]",0.001 to 0.999 nM
16,"COC(=O)N[C@@H](C(=O)N(C)[C@@H](C)c1ncc(-c2ccc(-c3ccc(-c4cnc([C@@H]5CCCN5C(=O)[C@@H](c5ccccc5)N(C)C)[nH]4)cc3)cc2)[nH]1)c1ccccc1 [Example 131.1-1, methyl ((1R)-2-(((1S)-1-(5-(4′-(2-((2S)-1-((2R)-2-(dimethylamino)-2-phenylacetyl)-2-pyrrolidinyl)-1H-imidazol-5-yl)-4-biphenylyl)-1H-imidazol-2-yl)ethyl)(methyl)amino)-2-oxo-1-phenylethyl)carbamate]",0.001 to 0.999 nM
17,"COC(=O)N[C@@H](Cc1cn(Cc2ccccc2)cn1)C(=O)N1CCC[C@H]1c1ncc(-c2ccc(-c3ccc(-c4cnc([C@@H]5CCCN5C(=O)[C@H](Cc5cn(Cc6ccccc6)cn5)NC(=O)OC)[nH]4)cc3)cc2)[nH]1 [cj-154, methyl ((1S)-2-((2S)-2-(5-(4′-(2-((2S)-1-((2S)-3-(1-benzyl-1H-imidazol-4-yl)-2-((methoxycarbonyl)amino)propanoyl)-2-pyrrolidinyl)-1H-imidazol-5-yl)-4-biphenylyl)-1H-imidazol-2-yl)-1-pyrrolidinyl)-1-((1-benzyl-1H-imidazol-4-yl)methyl)-2-oxoethyl)carbamate]",0.001 to 0.999 nM
18,"COC(=O)N[C@H](C(=O)N1CCC[C@H]1c1ncc(-c2ccc(-c3ccc(-c4cnc([C@@H]5CCCN5C(=O)[C@@H](NC5=NCCN5C)C(C)C)[nH]4)cc3)cc2)[nH]1)C(C)C [cj-11d, methyl ((1S)-2-methyl-1-(((2S)-2-(5-(4′-(2-((2S)-1-(N-(1-methyl-4,5-dihydro-1H-imidazol-2-yl)-L-valyl)-2-pyrrolidinyl)-1H-imidazol-5-yl)-4-biphenylyl)-1H-imidazol-2-yl)-1-pyrrolidinyl)carbonyl)propyl)carbamate]",0.001 to 0.999 nM
19,"CO[C@H](C(=O)N1CCC[C@H]1c1ncc(-c2ccc(-c3ccc(-c4cnc([C@@H]5CCCN5C(=O)[C@@H](c5ccccc5)N5CCCCC5)[nH]4)cc3)cc2)[nH]1)c1ccccc1 [Example 107-20, 1-((1R)-2-((2S)-2-(5-(4′-(2-((2S)-1-((2S)-2-methoxy-2-phenylacetyl)-2-pyrrolidinyl)-1H-imidazol-5-yl)-4-biphenylyl)-1H-imidazol-2-yl)-1-pyrrolidinyl)-2-oxo-1-phenylethyl) piperidine]",0.001 to 0.999 nM
